The values that follow come from patent publication US8802405B2, “Ethanologenic Clostridium species, Clostridium coskatii” (Coskata, Inc., priority 2010, dated 2014).

Data set [1] has as its system Clostridium coskatii (PS02).
The test system of data set [2] is C. ljungdahlii PETC. The data set is described as follows: Antibiotic susceptibility, growth at 100 μg/mL antibiotic. The format is cell-based, Clostridium ljungdahlii PETC. The following applies: for Antibiotic susceptibility pattern (+ indicates growth): C. ljungdahlii PETC, antibiotic 100 μg/ml, 37% CO, 35% H2, 22% CO2, balance N2, OD600; for Resistance to antibiotic (in words): Clostridium ljungdahlii PETC, 100 μg/mL. As for the experimental part: (§1) The antibiotic susceptibility of Clostridium coskatii (PS02) was evaluated in Acetogen C3 media against 17 antibiotics at a concentration of 100 μg/mL (Table G). Clostridium coskatii (PS02) was resistant to erythromycin, nalidixic acid, spectinomycin, colistin, penicillin, streptomycin, and chloramphenicol. Three antibiotics differentiated C. coskatii from three ethanologenic Clostridia: C. ljungdahlii PETC, C. ragsgalei, and C. autoethanogenum. These differentiating antibiotics included, erythromycin, carbenicillin, and chloramphenicol (Table J).
(§2) Antibiotic susceptibility was based upon growth in media containing 100 μg/mL of each antibiotic. The atmosphere was 37% CO, 35% H2, 22% CO2 with a balance gas of N2. A positive growth response was recorded for an OD600 exceeding 0.2 AU.

For data set [3], the system named is C. coskatii PS02. Described as above. The format is cell-based, Clostridium coskatii (PS02). The following applies: Acetogen C3 media; for Antibiotic susceptibility pattern (+ indicates growth): C. coskatii PS02, antibiotic 100 μg/ml, 37% CO, 35% H2, 22% CO2, balance N2, OD600; for Resistance to antibiotic (in words): Clostridium coskatii (PS02), 100 μg/mL. As for the experimental part:
as §1, §2

Data set [4] concerns C. autoethangenum. The data set is described as follows: Growth on various substrates (carbon substrate utilization). Format: cell-based, Clostridium autoethanogenum. The following applies: C. autoethangenum; 1 g/L carbon source; N2:CO2 (80%:20%); OD600. The procedure:
(§3) Growth was measured spectrophotometrically at 600 nm (Spectronic 20D; Milton Roy). Carbon substrate utilization was based upon growth after consecutive transfers in media containing 1 g/L of each carbon source. For carbon substrates, screening was performed under an atmosphere of N2: CO2 (80%:20%). A positive growth response was recorded for an OD600 exceeding 0.2 AU. For citrate, additional ^13C-labeled isotope experiments were conducted to determine the nature of products by analysis of final 0.2 μm-filtered product samples by carbon NMR using a Bruker UltraShield Avance 400 MHz nuclear magnetic resonance spectrometer.

Data set [5] relates to C. ragsdalei. Described as above. The format is cell-based, Clostridium ragsdalei. To be noted: 1 g/L carbon source, N2:CO2 (80%:20%), OD600. As for the experimental part: as §3
The subject of data set [6] is C. ljungdahlii PETC. The description is as above. Format: cell-based, Clostridium ljungdahlii PETC. To be noted: 1 g/L carbon source, N2:CO2 (80%:20%), OD600. The procedure: as §3
Data set [7] deals with C. coskatii PS02. Described as above. Format: cell-based, Clostridium coskatii (PS02). The following applies: for Growth on substrate: C. coskatii PS02, 1 g/L carbon source, N2:CO2 (80%:20%), OD600; for Chemoorganotrophic growth on substrate (in words): Clostridium coskatii (PS02). The procedure: as §3
The test system of data set [8] is C. coskatii PS02. Described as above. To be noted: Clostridium coskatii (PS02); absence of yeast extract. The format is cell-based.
Data set [9] deals with C. autoethangenum. The data set is described as follows: Antibiotic susceptibility, growth at 100 μg/mL antibiotic. The format is cell-based, Clostridium autoethanogenum. To be noted: antibiotic 100 μg/ml, 37% CO, 35% H2, 22% CO2, balance N2, OD600. As for the experimental part:
as §1, §2

Data set [10] has as its system C. ragsdalei. The data set is described as above. The format is cell-based, Clostridium ragsdalei. The following applies: antibiotic 100 μg/ml, 37% CO, 35% H2, 22% CO2, balance N2, OD600. As for the experimental part:
as §1, §2

For data set [11] the following is noted: at 37° C.; cited from earlier work.
In data set [12] the test system is Clostridium coskatii (PS02). From the text: In general, fermentation will be allowed to proceed until a desired level of product such as ethanol is produced in the culture media. Typically, this level of ethanol is in the range of at least 15 grams/liter of culture medium to 50 grams/liter, with a level of at least 30 grams/liter being preferable. […] In addition, continuous culture techniques exist which allow the continual replenishment of fresh culture medium with concurrent removal of used medium, including any liquid products therein (i.e. the chemostat mode).
This is another data set of the same source.

Consider `CC(=O)O` [acetic acid], for which the “Concentration of undissociated acetic acid at which cell growth was significantly inhibited” value in data set [1] was “exceeded 50 mM”.

As for `CC[C@H]1OC(=O)[C@H](C)[C@@H](O[C@H]2C[C@@](C)(OC)[C@@H](O)[C@H](C)O2)[C@H](C)[C@@H](O[C@@H]2O[C@H](C)C[C@H](N(C)C)[C@H]2O)[C@](C)(O)C[C@@H](C)C(=O)[C@H](C)[C@@H](O)[C@]1(C)O` [Erythromycin], in data set [2], the “Antibiotic susceptibility pattern (+ indicates growth)” value (shortened to “Antibiotic susceptibility pattern”) is given as “+ (+ indicates growth)” and the “Resistance to antibiotic (in words)” value was “Resistance”. Besides, in data set [3], the “Antibiotic susceptibility pattern” value was “+ (+ indicates growth)” and the “Resistance to antibiotic (in words)” value is on record as “resistant”.

Turning to `CC1(C)S[C@@H]2[C@H](NC(=O)C(C(=O)O)c3ccccc3)C(=O)N2[C@H]1C(=O)O` (stereo partly shown) [Carbenicillin], in data set [2], the “Antibiotic susceptibility pattern” value is given as “+ (+ indicates growth)” and the “Resistance to antibiotic (in words)” value is recorded as “Resistance”. In addition, in [3], the “Antibiotic susceptibility pattern” value is recorded as “+ (+ indicates growth)” and the “Resistance to antibiotic (in words)” value is listed as “Resistance”.

With `[C-]#[O+]` [CO], the Growth on substrate entry in data set [4], in data set [5], in data set [6] and in [7] was “+ (A positive growth response was recorded for an OD600 exceeding 0.2 AU)” each time. For the same compound, in data set [8], the “Chemolithoautotrophic growth (in words)” value is “occurred”.

As for `[H]/N=C(/N)N[C@H]1[C@H](O)[C@@H](O)[C@H](O[C@@H]2O[C@@H](C)[C@](O)(C=O)[C@H]2O[C@@H]2O[C@@H](CO)[C@H](O)[C@@H](O)[C@@H]2NC)[C@@H](N/C(N)=N\[H])[C@@H]1O` [Streptomycin], the “Antibiotic susceptibility pattern” value in [9], in data set [10], in data set [2] and in data set [3] was “+ (+ indicates growth)” in each case. Moreover, in data set [3], the “Resistance to antibiotic (in words)” value is recorded as “resistant”.

Consider `O=C(N[C@H](CO)[C@H](O)c1ccc([N+](=O)[O-])cc1)C(Cl)Cl` [Chloramphenicol], for which, in data set [3], the “Antibiotic susceptibility pattern” value is “+ (+ indicates growth)” and the “Resistance to antibiotic (in words)” value is “resistant”.

In the case of `O=S(=O)(O)CCN1CCN(CCS(=O)(=O)O)CC1` [PIPES, piperazine-N,N′-bis(2-ethanesulfonic acid], in [11], the pKa is reported as 6.66.

In the case of `O=S(=O)(O)CCN1CCOCC1` [MES, 2-(N-morpholino)ethanesulfonic acid], in data set [11], the pKa was 5.97.

On to `CCn1cc(C(=O)O)c(=O)c2ccc(C)nc21` [Nalidixic acid], for which the “Antibiotic susceptibility pattern” value in [9], in [10], in data set [2] and in [3] was “+ (+ indicates growth)” throughout. Also, the “Resistance to antibiotic (in words)” value in [3] is “resistant”.

For Tris(hydroxymethyl)aminomethane, in data set [11], the pKa is listed as 7.72.

Regarding `OCc1ccccc1O[C@@H]1O[C@H](CO)[C@@H](O)[C@H](O)[C@H]1O` [Salicin], the Growth on substrate entry in [4], in data set [5], in [6] and in data set [7] was “+ (A positive growth response was recorded for an OD600 exceeding 0.2 AU)” each time. In data set [7], the “Chemoorganotrophic growth on substrate (in words)” value (shortened to “Chemoorganotrophic growth”) was “growth was observed”.

Consider `CCO` [Ethanol], for which the Growth on substrate result in data set [4], in [5], in data set [6] and in [7] was “+ (A positive growth response was recorded for an OD600 exceeding 0.2 AU)” each time. For the same compound, the “Ethanol concentration in which the organism remains viable and will grow” value in data set [12] was “at least 60 grams/liter”.

Regarding `O=C([O-])CCC(=O)[O-].[Na+].[Na+]` [Na-Succinate], the Growth on substrate result in data set [4], in data set [5], in data set [6] and in data set [7] was “+ (A positive growth response was recorded for an OD600 exceeding 0.2 AU)” throughout. In addition, the “Chemoorganotrophic growth” value in data set [7] is “growth was observed”.

Consider Colistin, for which the “Antibiotic susceptibility pattern” value in data set [9], in data set [10], in data set [2] and in data set [3] was “+ (+ indicates growth)” throughout. Besides, the “Resistance to antibiotic (in words)” value in data set [3] is recorded as “resistant”.

As to Penicillin, the “Antibiotic susceptibility pattern” value in data set [9], in [10], in [2] and in [3] was “+ (+ indicates growth)” each time. Besides, the “Resistance to antibiotic (in words)” value in data set [3] is recorded as “resistant”.

For `OC[C@H]1O[C@@](CO)(O[C@H]2O[C@H](CO)[C@@H](O)[C@H](O)[C@H]2O)[C@@H](O)[C@@H]1O` [Sucrose], the Growth on substrate entry in data set [4], in [5], in data set [6] and in data set [7] was “+ (A positive growth response was recorded for an OD600 exceeding 0.2 AU)” each time. In addition, the “Chemoorganotrophic growth” value in data set [7] is recorded as “growth was observed”.

`CN[C@@H]1[C@H](O)[C@H](NC)[C@H]2O[C@@]3(O)C(=O)C[C@@H](C)O[C@H]3O[C@@H]2[C@H]1O` [Spectinomycin]: the “Antibiotic susceptibility pattern” value in data set [9], in data set [10], in data set [2] and in [3] was “+ (+ indicates growth)” in each case. Also, the “Resistance to antibiotic (in words)” value in data set [3] is listed as “resistant”.
